Source: US20180237774A1, “METHODS OF SCREENING FOR RIBOSWITCHES AND ATTENUATORS” (priority 2015, published 2018)
In brackets after ≈: the same amount, converted by molar mass. Positions of bridges follow the written chain, without caps; N, C: chain ends. Non-standard residues stand in square brackets, D forms with d. Residues, ends and D or L forms follow the SMILES beside them. *: point of attachment. Ileψ(thiazoline)Cys = CC[C@H](C)[C@H](N)C1=N[C@H](C(=O)*)CS1; dOrn = NCCC[C@@H](N)C(=O)O

Legend:
[1] = test system: B. subtilis; experiment: Sublethal antibiotic concentration determination (growth-rate monitoring); assay type: cell-based, Bacillus subtilis str. 168; settings: for Sublethal concentration (highest antibiotics concentration that did not cause growth-rate inhibition): Table 2; for Sublethal concentrations of antibiotics used in this study: Table 6
Method: (§1) A sublethal concentration for the antibiotics lincomycin, erythromycin, chloramphenicol, kanamycin, ofloxacin, ampicilin and bacitracin (Sigma) was determined for each of the organisms used in this study as follows. Bacterial cultures were propagated in LB or BHI O.N. in triplicates and diluted 1:200 into fresh media. Cultures were grown to early exponential phase (OD600=0.1-0.2) and then supplemented with serially diluted antibiotics stocks. The growth rate was dynamically monitored in intervals of 10-15 min using a 96 well plate format OD reader (Infinite M200 Tecan) for a period of at least 4 hours. […] To identify antibiotic-responsive regulators, bacteria were grown in LB or BHI in triplicates as described above and, upon reaching early exponential phase, 5 ml cultures were independently exposed for 15 minutes to the sublethal concentration of each antibiotic as determined above. Bacteria were then collected by centrifugation, flash frozen and stored in −80° C. until RNA extraction.

[2] = test system: L. monocytogenes; experiment: as above; assay type: cell-based, Listeria monocytogenes EGDe; settings: for Sublethal concentration (highest antibiotics concentration that did not cause growth-rate inhibition): Table 2; for Sublethal concentrations of antibiotics used in this study: Table 6
Method: as §1

[3] = test system: E. faecalis; experiment: as above; assay type: cell-based, Enterococcus faecalis ATCC 29212; settings: for Sublethal concentration (highest antibiotics concentration that did not cause growth-rate inhibition): Table 2; for Sublethal concentrations of antibiotics used in this study: Table 6
Method: as §1

[4] = test system: lmo1652 regulatory element (rli59); experiment: Antibiotic-dependent transcriptional readthrough by term-seq and RNA-seq; assay type: cell-based, L. monocytogenes
Method: as §1
(§2) Term-seq average coverage across triplicates was calculated for the premature termination site and the full length gene termination site with a span of 10 nt surrounding each terminator, and the fraction of full length (gene) terminations out of all termination events was used to as a measure of the transcriptional readthrough (FIG. 3A). In cases where the regulator controlled the transcription of a multi-gene operon, which contained internal TSSs in addition to the primary one, RNA-seq was used to determine readthrough in the first gene (FIGS. 4C and 4F). RNA-seq coverage was used to measure the median read coverage over either the regulatory element or the gene, and the ratio between the two (gene-coverage divided by regulator-coverage) was used as an estimate for the short/long transcript ratio generated by regulator activity (FIG. 3A).

[5] = test system: L. monocytogenes Wt; experiment: Minimal inhibitory concentration (MIC) determination in broth; assay type: cell-based; settings: Listeria monocytogenes, 48 h, BHI, two days at 37° C.
Method: (§3) The MIC was determined in broth culturing conditions in the presence of serially diluted antibiotic concentrations. Briefly, the bacterial strains were grown O.N. at 37° C. in BHI agarose plates and 1-3 single colonies were collected into 1 ml of BHI broth. The OD600 was adjusted to 0.01 and then diluted 1:10 into a 96-well plate containing a final volume of 200 μl BHI supplemented with two-fold serial dilutions of lincomycin, erythromycin and chloramphenicol.

[6] = test system: L. monocytogenes ΔAnti-anti-terminator; experiment: as above; assay type: cell-based; settings: Listeria monocytogenes, 48 h
Text: (§4) For mutant generation with pMAD-based plasmids^59, ˜600 nt regions of complementarity both upstream and downstream of a targeted region were either ordered as gBlocks (IDT) and amplified with gBlock-Up and Down oligonucleotides (Table 1) complimentary to uniform flanks on each gBlock corresponding to the 40 nts on either side of the pMAD multi-cloning site, or PCR amplified with Phusion High fidelity polymerase and reagents (Finnzymes, F-553) using genomic DNA as a template and then joined by a second splice overlap extension PCR reaction using the first two PCR products as template to generate a Upstream-Downstream (UD) PCR product (Table 1, lmo0919 deletion). PCR products were subsequently purified with QIAquick PCR purification columns (Qiagen, 28104), digested with the SalI and XmaI restriction enzymes (NEB), purified again as before, and ligated into SalI/XmaI digested pMAD plasmid for 1 hr at 25° C. with T4 DNA ligase (NEB, M0202S). 2 μl of each ligation were transformed into chemically competent E. coli Top10 (Invitrogen, C404003) cells according to the manufacturer's instructions. Transformants were screened by PCR and Sanger sequencing for the presence of the appropriate insert. Electrocompetent L. monocytogenes strains were transformed with the respective plasmid and mutagenesis carried out as described previously^59. Briefly, after transformation and plating onto selective BHI, 5 ug/ml erythromycin (Em) 80 ug/ml 5-bromo-4-chloro-3-indolyl-β-D-galactopyranoside (X-gal) plates, bacteria were grown at 30° C. for two days. A single blue colony was picked and transferred to liquid BHI broth and grown for an additional 6 hrs at 30° C. The colony was then diluted 1:1000 into 10 ml of BHI-Em and grown O.N. at 42° C., which prevents pMAD replication in the cytosol owing to a temperature sensitive ori. Serial dilutions were plated onto BHI-X-gal-Em plates and grown for two days at 42° C., and the process was reiterated several times until white colonies, in which the plasmid integrated into the genome, were recovered. Colonies were screened by colony PCR, and mutants were confirmed by Sanger sequencing.
as §3

[7] = test system: L. monocytogenes ΔAnti-terminator; experiment: as above; assay type: cell-based; settings: Listeria monocytogenes, 48 h
Text: as §4, §3

[8] = test system: L. monocytogenes uORF ATG > ACG; experiment: as above; assay type: cell-based; settings: Listeria monocytogenes, 48 h
Text: as §4, §3

[9] = test system: L. monocytogenes Δlmo0919; experiment: as above; assay type: cell-based, Listeria monocytogenes; settings: for MIC: Listeria monocytogenes, 48 h
Text: as §4, with “Serial dilutions were plated onto BHI-X-gal-Em plates and grown for two days at 42° C., and the process was reiterated several times until white colonies, in which the plasmid integrated into the genome, were recovered. Colonies were screened by colony PCR, and mutants were confirmed by Sanger sequencing.” left out
The MIC was determined in broth culturing conditions in the presence of serially diluted antibiotic concentrations. […]

[10] = test system: msrC (EF1413) termination-based regulator; experiment: Antibiotic-dependent transcriptional readthrough by term-seq and RNA-seq; assay type: cell-based, E. faecalis; settings: upon exposure to the antibiotic
Method: as §1
(§5) Term-seq average coverage across triplicates was calculated for the premature termination site and the full length gene termination site with a span of 10 nt surrounding each terminator, and the fraction of full length (gene) terminations out of all termination events was used to as a measure of the transcriptional readthrough (FIG. 3A). […]

[11] = test system: 3aa uORF of the lmo0919 ribo-regulator homolog; experiment: Ribosome profiling (Ribo-seq) of ribosome occupancy over the lmo0919 ribo-regulator uORF; assay type: cell-based; settings: L. innocua; brief exposure to lincomycin versus control
Method: (§6) FIG. 14 is a graph illustrating lincomycin-dependent ribosome stalling in the lmo0919 ribo-regulator.
(§7) To characterize the effects of lincomycin on the interaction between the ribo-regulator and the ribosome levels of ribosome occupancy over the ribo-regulator in control and lincomycin-treated bacteria were measured using ribosome profiling (Ribo-seq) (23, 42). Strikingly, an ˜5 fold increase in ribosome occupancy over the 3aa uORFs in both L. monocytogenes and L. innocua was measured following brief exposure to lincomycin (FIG. 14) (23).

[12] = test system: 3aa uORF of the lmo0919 ribo-regulator; experiment: as above; assay type: cell-based; settings: L. monocytogenes; brief exposure to lincomycin versus control
Method: as §6, §7

[13] = test system: lmo0919 regulator; experiment: Lincomycin-dependent induction of lmo0919 in ErmC-expressing strain; assay type: cell-based, L. monocytogenes expressing ErmC; settings: ErmC-expressing bacteria, ribosomes resistant to lincomycin
Method: FIG. 11 illustrates that the lmo0919 regulator senses ribosome inhibition. L. monocytogenes carrying the ErmC antibiotic resistance gene was assayed for lincomycin dependent induction. In the L. monocytogenes ErmC-expressing strain, in which ribosome are made immune to lincomycin via methylation of A2058 in the 23S rRNA, the lmo0919 regulator is unresponsive to the presence of the antibiotic (red).
The structural alterations in the lmo0919 ribo-regulator could either be mediated by direct binding of the antibiotic to the ribo-regulator (i.e., a riboswitch), or by attenuation, where the lincomycin-inhibited ribosomes stall on a uORF in the ribo-regulator, thus shifting the ribo-regulator structure from a “closed” to an “open” state. To differentiate between direct binding and ribosome-mediated regulation, lincomycin-dependent induction of lmo0919 in L. monocytogenes expressing the ErmC 23S rRNA methyltransferase was measured. In these bacteria the ribosomes are di-methylated at position A2058 of the 23S rRNA, rendering the ribosomes resistant to lincomycin.

[14] = test system: lmo0919 5′UTR regulator (rli53); experiment: Antibiotic-dependent transcriptional readthrough by term-seq and RNA-seq; assay type: cell-based, L. monocytogenes; settings: 15 minutes exposure to sublethal concentration
Method: as §1, §2

[15] = test system: EF2720 regulatory element; experiment: as above; assay type: cell-based, E. faecalis
Method: as §1, §5

| Compound | Sublethal concentration (highest antibiotics concentration that did not cause growth-rate inhibition) [1] [µg/mL] | Sublethal concentrations of antibiotics used in this study [1] [µg/mL] | Sublethal concentration (highest antibiotics concentration that did not cause growth-rate inhibition) [2] [µg/mL] | Sublethal concentrations of antibiotics used in this study [2] [µg/mL] | Sublethal concentration (highest antibiotics concentration that did not cause growth-rate inhibition) [3] [µg/mL] | Sublethal concentrations of antibiotics used in this study [3] [µg/mL] | Response of the lmo1652 regulatory element [4] | MIC [5] [µg/mL] | MIC [6] [µg/mL] | MIC [7] [µg/mL] | MIC [8] [µg/mL] | MIC [9] [µg/mL] | Response of msrC promoter and termination-based regulator [10] | Increase in ribosome occupancy over the 3aa uORF [11] [fold] | Increase in ribosome occupancy over the 3aa uORF [12] [fold] | Responsiveness of the lmo0919 regulator [13] | Activation of the lmo0919 5′UTR regulator (readthrough) [14] | Increase in sensitivity upon deletion of lmo0919 ([9]; Δlmo0919 versus wild type L. monocytogenes) [fold] | Response of the EF2720 regulatory element [15] |
| --- | --- | --- | --- | --- | --- | --- | --- | --- | --- | --- | --- | --- | --- | --- | --- | --- | --- | --- | --- |
| CC1(C)S[C@@H]2[C@H](NC(=O)[C@H](N)c3ccccc3)C(=O)N2[C@H]1C(=O)O [Ampicillin] | 0.0625 | 0.0625 | 1 | 1 | 2 | 2 | – | – | – | – | – | – | – | – | – | – | – | – | – |
| CC[C@H](C)[C@H](N)C1=N[C@H](C(=O)N[C@@H](CC(C)C)C(=O)N[C@H](CCC(=O)O)C(=O)N[C@H](C(=O)N[C@H]2CCCCNC(=O)[C@H](CC(N)=O)NC(=O)[C@@H](CC(=O)O)NC(=O)[C@H](Cc3cnc[nH]3)NC(=O)[C@@H](Cc3ccccc3)NC(=O)[C@H]([C@@H](C)CC)NC(=O)[C@@H](CCCN)NC2=O)[C@@H](C)CC)CS1 [Bacitracin] ({Ileψ(thiazoline)Cys}-L[dE]IK[dOrn]I[dF]H[dD]N; lactam 4-C) | 0.125 | 0.125 | 8 | 8 | 1 | 1 | – | – | – | – | – | – | – | – | – | – | – | – | – |
| O=C(N[C@H](CO)[C@H](O)c1ccc([N+](=O)[O-])cc1)C(Cl)Cl [Chloramphenicol] | 0.2 | 0.2 | 0.4 | 0.4 | 0.4 | 0.4 | responds | 2 (≈ 6.19 µM) | – | – | – | – | – | – | – | – | – | – | – |
| CC[C@H]1OC(=O)[C@H](C)[C@@H](O[C@H]2C[C@@](C)(OC)[C@@H](O)[C@H](C)O2)[C@H](C)[C@@H](O[C@@H]2O[C@H](C)C[C@H](N(C)C)[C@H]2O)[C@](C)(O)C[C@@H](C)C(=O)[C@H](C)[C@@H](O)[C@]1(C)O [Erythromycin] | 0.01562 | 0.01562 | 0.03125 | 0.03125 | 0.5 | 0.5 | responds | 0.0312 (≈ 0.0426 µM) | 0.0312 (≈ 0.0426 µM) | 0.0625 (≈ 0.0852 µM) | 0.0625 (≈ 0.0852 µM) | 0.0625 (≈ 0.0852 µM) | increase both the transcription initiation rate and readthrough into the gene | – | – | – | – | – | – |
| NC[C@H]1O[C@H](O[C@H]2[C@H](O)[C@@H](O[C@H]3O[C@H](CO)[C@@H](O)[C@H](N)[C@H]3O)[C@H](N)C[C@@H]2N)[C@H](O)[C@@H](O)[C@@H]1O [Kanamycin] | 0.5 | 0.5 | 0.5 | 0.5 | 16 | 16 | – | – | – | – | – | – | – | – | – | – | – | – | – |
| CCC[C@@H]1C[C@@H](C(=O)N[C@@H]([C@H]2O[C@H](SC)[C@H](O)[C@@H](O)[C@H]2O)[C@@H](C)O)N(C)C1 [Lincomycin] | 0.5 | 0.5 | 0.25 | 0.25 | 2 | 2 | responds | 1 (≈ 2.46 µM) | 8 (≈ 19.7 µM) | 0.25 (≈ 0.615 µM) | 0.25 (≈ 0.615 µM) | 0.25 (≈ 0.615 µM) | – | ~5 | ~5 | no longer responsive | specific activation | 4 | respond |
